Assay results: patent publication US20240051946A1, “TARGETED PROTEIN DEGRADATION OF PARP14 FOR USE IN THERAPY” (Ribon Therapeutics, Inc., priority 2022, published 2024)
Like-named read-outs stand apart in the source and are kept apart here.

What was measured:
[1] = target: T1, catalytic domain of human PARP14 (residues 1611 to 1801) with NanoLuc tag (Homo sapiens, UniProt Q460N5); test: NanoLuc assay for the degradation of PARP14; assay type: cell-based; conditions: Assay A; NanoLuc-PARP14 overexpressed in HEK-293T cells; 2 hours at 37 degrees; luminescence
T1 construct: expressed in transfected cells; host or cells: HEK-293T cells (ATCC), plasmid pRTX240 in pcDNA3.1(-)
T1 sequence (Q460N5 1611-1801): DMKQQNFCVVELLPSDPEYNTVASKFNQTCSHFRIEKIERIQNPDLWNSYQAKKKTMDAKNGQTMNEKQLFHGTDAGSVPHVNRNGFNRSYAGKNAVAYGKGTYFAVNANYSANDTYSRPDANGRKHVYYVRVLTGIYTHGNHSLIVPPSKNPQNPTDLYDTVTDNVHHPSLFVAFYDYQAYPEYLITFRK
Procedure: The catalytic domain of human PARP14 (residues 1611 to 1801, GenBank Accession No. NM_017554) was inserted into the pcDNA3.1(−) vector. The insert also contained a NanoLuc tag on the N terminus of the PARP14 protein.
Degradation of PARP14 protein was assessed using measurement of the NanoLuc tag as proxy for the PARP14 protein. PARP14 with NanoLuc tag was overexpressed in […] cells (ATCC) using the plasmid described in Table 1. Plasmid DNA was diluted in empty vector DNA then added to 1.163 mL of phenol red free OptiMEM (Thermo Fisher). Plasmid DNA concentrations used in each assay described in Table 1. The plasmid DNA was mixed with 78.5 μL of Fugene HD (Promega) and allowed to incubate 5 minutes.
Next, 1.125 mL were added to 10 million 293T cells in DMEM (Thermo Fisher) supplemented with 10% FBS (VWR) and 1× Glutamax (Gibco). The transfection was incubated for 24 hrs at 37 degrees in an incubator supplemented with 5% CO2. The cells were then trypsinized and brought up in phenol red free OptiMEM media. Transfected HEK-293T cells were diluted to […] and then added to assay plate (Corning 3574) using a Multidrop (Thermo Fisher) to add 40 μL per well of the 384 well plate, resulting in 5,000 cells per well. 40 nL of a dose response curve diluted in DMSO of each test compound was added to the cell plate using a Mosquito (TTP Labtech) and the plate was incubated at 37 degrees for 2 hours. Assay plate was brought to room temperature then 20 μL per well of NanoGlo (Promega) was added to the plate. Luminescence was measured on an Envision (Perkin Elmer).
(§1) The average DMSO was calculated from 32 wells containing 0.1% DMSO only in columns 12 and 24 of the assay plate. The % of DMSO values were calculated as described below: […]
(§2) The % of DMSO values were plotted as a function of compound concentration and the following 4-parameter fit was applied to derive the DC50 values:
(§3) where top, bottom, and Hill Coefficient are allowed to float. Y is the % of DMSO and X is the compound concentration.
DC50 data for the Example compounds is provided below in Table 2 (“+” is <0.1 μM; “++” is ≥0.1 μM and <1 μM; and “+++” is ≥1 μM).

[2] = target: T2, PARP14 (Homo sapiens, UniProt Q460N5); test: HiBiT assay for the degradation of PARP14 (HiBiT tagged PARP14 in LgBiT expressing Jurkat cells); assay type: cell-based; conditions: Assay B, 37° C. for 2 or 24 hours, luminescence
T2 construct: engineered to contain a HiBiT tag on both alleles of the PARP14 gene; endogenous in cells; host or cells: Jurkat cells stably expressing LgBiT (Promega), with CRISPR/Cas9 knock-in of HiBiT at the PARP14 locus
T2 sequence (Q460N5 whole entry): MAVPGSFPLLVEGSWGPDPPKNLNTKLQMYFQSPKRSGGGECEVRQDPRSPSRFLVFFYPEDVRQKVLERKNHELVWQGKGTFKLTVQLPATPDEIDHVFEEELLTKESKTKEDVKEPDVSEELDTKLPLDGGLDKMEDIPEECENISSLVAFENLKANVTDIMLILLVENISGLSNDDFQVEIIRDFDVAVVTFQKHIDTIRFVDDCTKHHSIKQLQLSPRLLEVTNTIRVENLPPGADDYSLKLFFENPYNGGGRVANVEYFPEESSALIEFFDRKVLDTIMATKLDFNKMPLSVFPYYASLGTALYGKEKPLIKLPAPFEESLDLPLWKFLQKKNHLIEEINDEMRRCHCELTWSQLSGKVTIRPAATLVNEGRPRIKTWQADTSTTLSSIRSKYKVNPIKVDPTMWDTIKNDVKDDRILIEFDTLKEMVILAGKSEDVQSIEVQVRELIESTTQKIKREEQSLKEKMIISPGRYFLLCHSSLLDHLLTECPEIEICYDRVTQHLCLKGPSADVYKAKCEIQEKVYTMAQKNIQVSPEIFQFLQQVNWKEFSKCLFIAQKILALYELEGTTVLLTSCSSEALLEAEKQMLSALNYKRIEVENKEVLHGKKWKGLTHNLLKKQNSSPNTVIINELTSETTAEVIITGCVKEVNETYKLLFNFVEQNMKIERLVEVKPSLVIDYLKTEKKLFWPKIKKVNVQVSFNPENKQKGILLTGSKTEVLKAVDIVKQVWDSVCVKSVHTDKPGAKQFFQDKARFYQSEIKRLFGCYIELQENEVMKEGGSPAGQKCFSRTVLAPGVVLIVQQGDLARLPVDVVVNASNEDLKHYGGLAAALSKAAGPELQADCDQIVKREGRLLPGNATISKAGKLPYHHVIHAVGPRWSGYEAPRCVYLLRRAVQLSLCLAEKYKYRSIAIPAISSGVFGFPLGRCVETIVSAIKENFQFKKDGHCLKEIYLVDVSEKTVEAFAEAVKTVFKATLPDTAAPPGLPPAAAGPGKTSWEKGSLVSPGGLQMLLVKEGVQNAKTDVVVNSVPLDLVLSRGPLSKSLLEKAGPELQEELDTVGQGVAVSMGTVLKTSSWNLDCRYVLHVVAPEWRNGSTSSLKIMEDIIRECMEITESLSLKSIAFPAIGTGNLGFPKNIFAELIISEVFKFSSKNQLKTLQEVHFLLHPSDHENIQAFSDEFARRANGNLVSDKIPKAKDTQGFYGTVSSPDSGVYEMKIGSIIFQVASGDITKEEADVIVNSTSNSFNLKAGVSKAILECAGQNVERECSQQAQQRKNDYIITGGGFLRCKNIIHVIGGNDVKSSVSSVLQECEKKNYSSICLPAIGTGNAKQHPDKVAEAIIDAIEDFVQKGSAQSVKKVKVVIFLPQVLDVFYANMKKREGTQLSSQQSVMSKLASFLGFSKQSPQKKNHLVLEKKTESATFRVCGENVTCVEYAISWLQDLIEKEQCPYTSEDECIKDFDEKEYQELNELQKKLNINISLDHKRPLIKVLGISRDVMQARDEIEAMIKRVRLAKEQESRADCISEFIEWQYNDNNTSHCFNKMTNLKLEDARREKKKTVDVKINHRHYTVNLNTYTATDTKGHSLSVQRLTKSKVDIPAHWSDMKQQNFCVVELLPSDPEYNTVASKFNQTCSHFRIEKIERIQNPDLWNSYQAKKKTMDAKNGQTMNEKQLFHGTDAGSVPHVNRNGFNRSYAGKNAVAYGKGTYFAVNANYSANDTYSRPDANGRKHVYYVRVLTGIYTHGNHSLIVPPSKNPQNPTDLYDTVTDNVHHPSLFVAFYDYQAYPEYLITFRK
Procedure: Jurkat cells stably transfected with LgBiT (Promega) were engineered to contain a HiBiT tag on both alleles of the PARP14 gene (Genbank Accession Number: NM_017554) via CRISPR/Cas9 editing. The HiBiT tag is an 11 amino acid tag created by Promega that associates with LgBiT protein to form the NanoLuc® tag on the C-terminus of PARP14. Clones were isolated and confirmed for the HiBiT tag via Sanger sequencing.
Degradation of PARP14 protein was assessed by measuring the luminescence of the HiBiT tag associating with the LgBiT protein as a proxy for the PARP14 protein. Jurkat cells were diluted to 250,000 cells per mL and then added to assay plate (Corning 3574) using a Multidrop (Thermo Fisher) to add 20 μL per well of the 384 well plate, resulting in 5,000 cells per well. 20 nL of a dose response curve diluted in DMSO of each test compound was added to the cell plate using a Mosquito (TTP Labtech) and the plate was incubated at 37° C. for 2 or 24 hours. Assay plate was brought to room temperature then 5 μL per well of Live Cell Substrate (Promega) was added to the plate. Luminescence was measured on an Envision (Perkin Elmer).
as §1, §2, §3
DC50 data for the Example compounds is provided below in Table 2 (“+” is <0.03 μM; “++” is ≥0.03 μM).

| SMILES | DC50 [1] [nM] | other results |
| --- | --- | --- |
| CC(=O)N1CCC(COc2cc(F)c3c(=O)[nH]c(CSC4CCN(CC(=O)Nc5ccc6c(c5)C(=O)N(C5CCC(=O)NC5=O)C6=O)CC4)nc3c2)CC1 (stereo not drawn) [Example 32, 2-(4-(((7-((1-acetylpiperidin-4-yl)methoxy)-5-fluoro-4-oxo-3,4-dihydroquinazolin-2-yl)methyl)thio)piperidin-1-yl)-N-(2-(2,6-dioxopiperidin-3-yl)-1,3-dioxoisoindolin-5-yl)acetamide] | < 100 | – |
| CC(=O)N1CCC(COc2cc(F)c3c(=O)[nH]c(CSC4CCN(CC#Cc5ccc6c(c5)C(=O)N(C5CCC(=O)NC5=O)C6=O)CC4)nc3c2)CC1 (stereo not drawn) [Example 34, 5-(3-(4-(((7-((1-acetylpiperidin-4-yl)methoxy)-5-fluoro-4-oxo-3,4-dihydroquinazolin-2-yl)methyl)thio)piperidin-1-yl)prop-1-yn-1-yl)-2-(2,6-dioxopiperidin-3-yl)isoindoline-1,3-dione] | < 100 | – |
| CC(=O)N1CCC(COc2cc(F)c3c(=O)[nH]c(CSC4CCN(CC#Cc5cccc6c5n(C)c(=O)n6C5CCC(=O)NC5=O)CC4)nc3c2)CC1 (stereo not drawn) [Example 35, 3-(4-(3-(4-(((7-((1-acetylpiperidin-4-yl)methoxy)-5-fluoro-4-oxo-3,4-dihydroquinazolin-2-yl)methyl)thio)piperidin-1-yl)prop-1-yn-1-yl)-3-methyl-2-oxo-2,3-dihydro-1H-benzo[d]imidazol-1-yl)piperidine-2,6-dione] | < 100 | – |
| CC(=O)N1CCC(COc2cc(F)c3c(=O)[nH]c(CSC4CCN(CC#Cc5ccc6c(c5)n(C)c(=O)n6C5CCC(=O)NC5=O)CC4)nc3c2)CC1 (stereo not drawn) [Example 36, 3-(5-(3-(4-(((7-((1-acetylpiperidin-4-yl)methoxy)-5-fluoro-4-oxo-3,4-dihydroquinazolin-2-yl)methyl)thio)piperidin-1-yl)prop-1-yn-1-yl)-3-methyl-2-oxo-2,3-dihydro-1H-benzo[d]imidazol-1-yl)piperidine-2,6-dione] | < 100 | – |
| CC(=O)N1CCC(COc2cc(F)c3c(=O)[nH]c(CSC4CCN(CC#Cc5cccc(N6CCC(=O)NC6=O)c5)CC4)nc3c2)CC1 [Example 38, 1-(3-(3-(4-(((7-((1-acetylpiperidin-4-yl)methoxy)-5-fluoro-4-oxo-3,4-dihydroquinazolin-2-yl)methyl)thio)piperidin-1-yl)prop-1-yn-1-yl)phenyl)dihydropyrimidine-2,4(1H,3H)-dione] | < 100 | – |
| CC(=O)N1CCC(COc2cc(F)c3c(=O)[nH]c(CSC4CCN(CC5CCN(c6cccc7c6C(=O)N(C6CCC(=O)NC6=O)C7=O)CC5)CC4)nc3c2)CC1 (stereo not drawn) [Example 39, 4-(4-((4-(((7-((1-acetylpiperidin-4-yl)methoxy)-5-fluoro-4-oxo-3,4-dihydroquinazolin-2-yl)methyl)thio)piperidin-1-yl)methyl)piperidin-1-yl)-2-(2,6-dioxopiperidin-3-yl)isoindoline-1,3-dione] | < 100 | – |
| CC(=O)N1CCC(COc2cc(F)c3c(=O)[nH]c(CSC4CCN(CC5CN(c6cccc7c6CN(C6CCC(=O)NC6=O)C7=O)C5)CC4)nc3c2)CC1 (stereo not drawn) [Example 41, 3-(4-(3-((4-(((7-((1-acetylpiperidin-4-yl)methoxy)-5-fluoro-4-oxo-3,4-dihydroquinazolin-2-yl)methyl)thio)piperidin-1-yl)methyl)azetidin-1-yl)-1-oxoisoindolin-2-yl)piperidine-2,6-dione] | < 100 | – |
| O=C1CCC(Nc2ccc(N3CCN(CCN4CCC(SCc5nc6cc(OCC7CC7)cc(F)c6c(=O)[nH]5)CC4)CC3)cc2)C(=O)N1 (stereo not drawn) [Example 42, 3-((4-(4-(2-(4-(((7-(cyclopropylmethoxy)-5-fluoro-4-oxo-3,4-dihydroquinazolin-2-yl)methyl)thio)piperidin-1-yl)ethyl)piperazin-1-yl)phenyl)amino)piperidine-2,6-dione] | – | DC50 [2]: < 30 nM |
| O=C1CCC(Nc2ccc(N3CCN(CCN4CCC(SCc5nc6cc(OCC7CCOCC7)cc(F)c6c(=O)[nH]5)CC4)CC3)cc2)C(=O)N1 (stereo not drawn) [Example 43, 3-((4-(4-(2-(4-(((5-fluoro-4-oxo-7-((tetrahydro-2H-pyran-4-yl)methoxy)-3,4-dihydroquinazolin-2-yl)methyl)thio)piperidin-1-yl)ethyl)piperazin-1-yl)phenyl)amino)piperidine-2,6-dione] | – | DC50 ([2]; read-out: DC50): < 30 nM |
| O=C1CCC(Nc2ccc(N3CCN(CCN4CCC(OCc5nc6cc(OCC7CCOCC7)cc(F)c6c(=O)[nH]5)CC4)CC3)c(F)c2)C(=O)N1 (stereo not drawn) [Example 44, 3-((3-fluoro-4-(4-(2-(4-((5-fluoro-4-oxo-7-((tetrahydro-2H-pyran-4-yl)methoxy)-3,4-dihydroquinazolin-2-yl)methoxy)piperidin-1-yl)ethyl)piperazin-1-yl)phenyl)amino)piperidine-2,6-dione] | – | DC50 ([2]; read-out: DC50): < 30 nM |
| O=C1CCC(Nc2ccc(N3CCN(CCN4CCC(OCc5nc6cc(OCC7CC7)cc(F)c6c(=O)[nH]5)CC4)CC3)c(F)c2)C(=O)N1 (stereo not drawn) [Example 45, 3-((4-(4-(2-(4-((7-(cyclopropylmethoxy)-5-fluoro-4-oxo-3,4-dihydroquinazolin-2-yl)methoxy)piperidin-1-yl)ethyl)piperazin-1-yl)-3-fluorophenyl)amino)piperidine-2,6-dione] | – | DC50 ([2]; read-out: DC50): < 30 nM |
| O=C1CCC(Nc2ccc(N3CCN(CCN4CCC(SCc5nc6cc(OCC7CCOCC7)cc(F)c6c(=O)[nH]5)CC4)CC3)c(F)c2)C(=O)N1 (stereo not drawn) [Example 46, 3-((3-fluoro-4-(4-(2-(4-(((5-fluoro-4-oxo-7-((tetrahydro-2H-pyran-4-yl)methoxy)-3,4-dihydroquinazolin-2-yl)methyl)thio)piperidin-1-yl)ethyl)piperazin-1-yl)phenyl)amino)piperidine-2,6-dione] | – | DC50 ([2]; read-out: DC50): < 30 nM |

Further lines, with some results ahead:

| DC50 [1] [nM] | SMILES | other results |
| --- | --- | --- |
| < 100 | CC(=O)N1CCC(COc2cc(F)c3c(=O)[nH]c(CSC4CCN(CC5CCN(c6ccc7c(c6)C(=O)N(C6CCC(=O)NC6=O)C7=O)CC5)CC4)nc3c2)CC1 (stereo not drawn) [Example 33, 5-(4-((4-(((7-((1-acetylpiperidin-4-yl)methoxy)-5-fluoro-4-oxo-3,4-dihydroquinazolin-2-yl)methyl)thio)piperidin-1-yl)methyl)piperidin-1-yl)-2-(2,6-dioxopiperidin-3-yl)isoindoline-1,3-dione] | – |
| < 100 | CC(=O)N1CCC(COc2cc(F)c3c(=O)[nH]c(CSC4CCN(CC#Cc5ccc(N6CCC(=O)NC6=O)cc5)CC4)nc3c2)CC1 [Example 37, 1-(4-(3-(4-(((7-((1-acetylpiperidin-4-yl)methoxy)-5-fluoro-4-oxo-3,4-dihydroquinazolin-2-yl)methyl)thio)piperidin-1-yl)prop-1-yn-1-yl)phenyl)dihydropyrimidine-2,4(1H,3H)-dione] | – |
| < 100 | O=C1CCC(N2C(=O)c3ccc(N4CCC(CN5CCC(SCc6nc7cc(OCC8CC8)cc(F)c7c(=O)[nH]6)CC5)CC4)cc3C2=O)C(=O)N1 (stereo not drawn) [Example 40, 5-(4-((4-(((7-(cyclopropylmethoxy)-5-fluoro-4-oxo-3,4-dihydroquinazolin-2-yl)methyl)thio)piperidin-1-yl)methyl)piperidin-1-yl)-2-(2,6-dioxopiperidin-3-yl)isoindoline-1,3-dione] | – |
